Assay results: patent US10722489B2, “D-3-phosphoglycerate dehydrogenase allosteric inhibitor and use thereof” (Peking University, priority 2016, dated 2020)

Experiments:
[1] = tested on: PHGDH-insensitive breast cancer cells MCF-7; experiment: MTT cell viability assay, MCF-7; format: cell-based; details: Homo sapiens, MCF7, 72 h
Text: (§1) The biological activities of the compounds at the cellular level were investigated. A series of cancer cells and normal mammary epithelial cells were selected, and the experimental method of MTT (3-(4,5)-dimethylthiahiazo (-z-y 1)-3,5-di-phenytetrazoliumromide) was used.
(§2) The specific method: firstly, PHGDH-sensitive breast cancer cells MDA-MB-468 (5,000 cells/well) and HCC70 (5,000 cells/well), PHGDH-insensitive breast cancer cells MCF-7 (3,000 cells/well), MDA-MB-231 (2,000 cells/well) and ZR-75-1 (4,000 cells/well), colon cancer cell DLD-1 (2,000 cells/well) and normal breast epithelial cells MCF-10A (3,000 cells/well) in the exponential growth were plated into 96-well culture plates and treated in triplicate with or without various concentrations of activated compounds from the enzymatic bioassays. They adhered to the wall over night. The compounds were added from stock solutions in DMSO and the final concentration of DMSO in the medium was 0.2%. After 72 h, 20 μL 5 mg/ml MTT was added to each well and incubated for at least 4 h. […] The number of viable cells was assessed by spectrophotometry at 570 nm, and calculated as the percentage of absorbance of treated cells relative to that of solvent controls. Results were expressed as a percentage of viable cells and the EC50 was calculated by using the Hill equation.

[2] = tested on: PHGDH-sensitive breast cancer cells MDA-MB-468; experiment: MTT cell viability assay, MDA-MB-468; format: cell-based; details: Homo sapiens, 72 h
Text: as §1, §2

[3] = tested on: PHGDH-sensitive breast cancer cells HCC70; experiment: MTT cell viability assay, HCC70; format: cell-based; details: Homo sapiens, 72 h
Text: as §1, §2

[4] = tested on: PHGDH-insensitive breast cancer cells MDA-MB-231; experiment: MTT cell viability assay, MDA-MB-231; format: cell-based; details: Homo sapiens, 72 h
Text: as §1, §2

colon cancer cell DLD-1 = experiment: MTT cell viability assay, DLD-1; format: cell-based; details: Homo sapiens, 72 h, colon cancer cells
Text: as §1, §2

MDA-MB-468 Cells = experiment: Cell cycle analysis by PI staining and flow cytometry; format: cell-based; details: MDA-MB-468, 24 h, various concentrations
Method: MDA-MB-468 Cells (300,000 cells/well) in exponential growth were plated into 6-well culture plates and then treated in triplicate with or without various concentrations of PKUMDL-WL-2101. After 24 h, cells were harvested by trypsinization and centrifuged, and then fixed in 70% ice-cold ethanol, washed twice with 1×PBS, and kept at 4° C. overnight. The fixed cells were afterwards washed in 1×PBS and resuspended in 1×PBS containing 0.5% triton-x-100, 50 μg/ml Prodiumiodide (PI) and 50 μg/ml DNase-free RNase. The cell suspension was incubated in the dark for 30 min at 37° C. and analyzed by using a BD FACSCanto™ cytometer.

[5] = tested on: normal breast epithelial cells MCF-10A; experiment: MTT cell viability assay, MCF-10A; format: cell-based; details: Homo sapiens, 72 h
Text: as §1, §2

[6] = tested on: PHGDH-insensitive breast cancer cells ZR-75-1; experiment: MTT cell viability assay, ZR-75-1; format: cell-based; details: Homo sapiens, 72 h
Text: as §1, §2

recombinant PHGDH = recombinant PHGDH (Homo sapiens (Human), UniProt O43175); experiment: In vitro enzymatic activity of PHGDH by fluorescence kinetic method; format: biochemical; details: recombinant PHGDH 30 ng/μL, NADH fluorescence at 456 nm
Method: The activity of recombinant PHGDH was measured by monitoring the reduced nicotinamideadenine dinucleotide (NADH) to nicotinamideadenine dinucleotide (NAD^+) change in fluorescence emission at 456 nm. PHGDH (final concentration of 30 ng/μL) was first pre-incubated with enzyme samples in the assay buffer (25 mM HEPES, pH 7.1, 400 mM KCl, 5 μM phosphopyridoxa (PLP), 0.5 mM α-ketoglutarate, 150 μM NADH, PSAT1) for 10 min in 96-well plate, then 10 μL of DMSO (control) or a small molecule of DMSO solution was added, shaken at 550 rpm for 5 minutes at 25° C. and balanced for 5 minutes. […] The reaction was started by adding L-phospho-O-serine (Pser) solution. The UV-visible microplate reader was used to monitor the change of NADH consumption at 456 nm with time. Protein activity was assessed by using an initial rate of reaction within 30 s, at which time NADH consumption was linear over time. The enzymatic inhibition ability of sixty-three compounds was first measured at 50 μM, compounds with percentage inhibition of PHGDH larger than 50% were selected for further studies, and IC50 values were obtained (Table 3).

MDA-MB-468 xenografts = experiment: Mouse xenograft model, compounds injected separately; format: in vivo; details: 20 mg/kg/day IP; for inhibitory effects on MDA-MB-468 xenografts (tumor volume): after 30 days of drug delivery, vs vehicle; for tolerability (body weight): over the course of the experiments
Method: All animal experiments were performed in compliance with guidelines of the Animal Welfare Act and the guide for the care and use of laboratory animals following protocols approved by the Institutional Animals Care and Use Committee (IACUC). […] The tumor volumes were measured every two days and calculated by using the following formula width^2 (mm)×length (mm)×0.5.

Chain of recombinant PHGDH (O43175 whole entry): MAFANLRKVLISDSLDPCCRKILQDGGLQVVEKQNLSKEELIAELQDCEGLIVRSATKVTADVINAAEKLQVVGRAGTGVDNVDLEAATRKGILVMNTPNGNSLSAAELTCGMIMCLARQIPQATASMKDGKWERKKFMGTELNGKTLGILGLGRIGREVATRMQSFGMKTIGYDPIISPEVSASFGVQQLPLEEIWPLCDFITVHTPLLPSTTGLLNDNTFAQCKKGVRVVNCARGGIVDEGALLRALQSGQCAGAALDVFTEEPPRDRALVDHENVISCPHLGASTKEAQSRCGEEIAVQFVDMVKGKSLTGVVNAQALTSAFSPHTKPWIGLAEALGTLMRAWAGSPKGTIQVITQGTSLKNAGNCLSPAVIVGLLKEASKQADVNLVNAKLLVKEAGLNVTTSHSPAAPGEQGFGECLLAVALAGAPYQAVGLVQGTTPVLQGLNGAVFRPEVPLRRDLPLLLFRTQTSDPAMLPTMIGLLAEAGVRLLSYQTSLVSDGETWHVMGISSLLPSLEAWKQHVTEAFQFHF

**Q.** Which EC50 [1] does the source give for `O=C(N/N=C/c1cc([N+](=O)[O-])ccc1O)c1ccc(O)cc1O` [PKUMDL-WL-2101, (E)-2,4-dihydroxy-N′-(2-hydroxy-5-nitrobenzylidene)benzohydrazide] here?
**A.** The EC50 was 139 µM.

**Q.** And the EC50 [2]?
**A.** Its EC50 is 7.7 µM.

**Q.** What about the EC50 [3] of the same compound?
**A.** The EC50 was 10.8 µM.

**Q.** What about the EC50 [4] of the same compound?
**A.** The EC50 was 27.7 µM.

**Q.** And the EC50 (colon cancer cell DLD-1)?
**A.** The EC50 was 18.3 µM.

**Q.** And the “effect on cell cycle” value (MDA-MB-468 Cells)?
**A.** The value was “arrested the cell cycle at the G0/G1-phase in a dose-dependent manner”.

**Q.** And the EC50 [5]?
**A.** The EC50 was 45.8 µM.

**Q.** What about the EC50 [6] of the same compound?
**A.** The EC50 was 83.4 µM.

**Q.** And the IC50 (recombinant PHGDH)?
**A.** The IC50 was 34.8 ± 3.6 µM.

**Q.** And the “inhibitory effects on MDA-MB-468 xenografts (tumor volume)” value (MDA-MB-468 xenografts)?
**A.** The value was “substantial inhibitory effects”.

**Q.** And the “tolerability (body weight)” value (MDA-MB-468 xenografts)?
**A.** The value was “maintain normal body weight”.

**Q.** How did the IC50 (recombinant PHGDH) turn out when `O=C(N/N=C/c1cc([N+](=O)[O-])ccc1O)c1ccc(C(F)(F)F)cc1` [PKUMDL-WL-2128] was run?
**A.** Its IC50 is 36.1 ± 4.2 µM.

**Q.** `CCNC(=S)N/N=C\c1ccc(-c2ccc(C(=O)O)c(Cl)c2)o1` [PKUMDL-WL-2201, (Z)-2-chloro-4-(5-((2-(ethylcarbamothioyl) hydrazono)methyl)furan-2-yl) benzoic acid] was tested. Which EC50 [1] did it give?
**A.** The EC50 was over 200 µM.

**Q.** And the EC50 [2]?
**A.** The EC50 was 6.9 µM.

**Q.** What about the EC50 [3] of the same compound?
**A.** The EC50 was 10 µM.

**Q.** What about the EC50 [4] of the same compound?
**A.** Its EC50 is over 200 µM.

**Q.** What about the EC50 (colon cancer cell DLD-1) of the same compound?
**A.** The EC50 was 167 µM.

**Q.** And the “effect on cell cycle” value (MDA-MB-468 Cells)?
**A.** Its value is “arrested the cell cycle at the G0/G1-phase in a dose-dependent manner”.

**Q.** What about the EC50 [5] of the same compound?
**A.** Its EC50 is 64.7 µM.

**Q.** And the EC50 [6]?
**A.** Its EC50 is 125 µM.

**Q.** What about the IC50 (recombinant PHGDH) of the same compound?
**A.** The IC50 was 35.7 ± 8.6 µM.

**Q.** And the “inhibitory effects on MDA-MB-468 xenografts (tumor volume)” value (MDA-MB-468 xenografts)?
**A.** Its value is “substantial inhibitory effects”.

**Q.** What about the “tolerability (body weight)” value (MDA-MB-468 xenografts) of the same compound?
**A.** Its value is “maintain normal body weight”.

**Q.** For `COC(=O)c1ccc(-c2ccc(/C=N/NC(=S)Nc3ccc([N+](=O)[O-])cc3)o2)cc1` [PKUMDL-WL-2212, (E)-Methyl 4-(5-((2-((4-nitrophenyl)carbamothioyl) hydrazono)methyl)furan-2-yl) benzoate], which IC50 (recombinant PHGDH) is on record?
**A.** Its IC50 is 29.8 ± 9.4 µM.

**Q.** For `COC(=O)c1ccc(-c2ccc(/C=N/NC(=S)NN)o2)cc1` [PKUMDL-WL-2220, (E)-Methyl 4-(5-((2-(hydrazinecarbonothioyl) hydrazono)methyl)furan-2-yl) benzoate], which IC50 (recombinant PHGDH) is on record?
**A.** The IC50 was 8.9 ± 1.8 µM.

**Q.** How did the IC50 (recombinant PHGDH) turn out when `NNC(=S)N/N=C/c1ccc(-c2ccc(C(=O)O)cc2)o1` [PKUMDL-WL-2222, (E)-4-(5-((2-(hydrazinecarbonothioyl) hydrazono)methyl)furan-2-yl) benzoic acid] was run?
**A.** Its IC50 is 16.7 ± 1.6 µM.

**Q.** `NNC(=S)N/N=C/c1ccc(-c2ccc(S(N)(=O)=O)cc2)o1` [PKUMDL-WL-2225, (E)-4-(5-((2-(hydrazinecarbonothioyl) hydrazono)methyl)furan-2-yl) benzenesulfonamide] was tested. Which IC50 (recombinant PHGDH) did it give?
**A.** The IC50 was 38.9 ± 1.2 µM.

**Q.** Which IC50 (recombinant PHGDH) does the source give for `CCNC(=S)N/N=C/c1ccc(-c2ccc(C(=O)O)cc2)o1` [PKUMDL-WL-2226, (E)-4-(5-((2-(ethylcarbamothioyl) hydrazono)methyl)furan-2-yl) benzoic acid] here?
**A.** Its IC50 is 35.5 ± 1.1 µM.

**Q.** How did the IC50 (recombinant PHGDH) turn out when `CCNC(=S)N/N=C/c1ccc(-c2ccc([N+](=O)[O-])cc2)o1` [PKUMDL-WL-2228, (E)-N-ethyl-2-((5-(4-nitrophenyl)furan-2-yl)methylene) hydrazinecarbothioamide] was run?
**A.** Its IC50 is 37 ± 2.8 µM.

**Q.** `CCNC(=S)N/N=C/c1ccc(-c2ccc(O)cc2)o1` [PKUMDL-WL-2229, (E)-N-ethyl-2-((5-(4-hydroxyphenyl)furan-2-yl)methylene) hydrazinecarbothioamide] was tested. Which IC50 (recombinant PHGDH) did it give?
**A.** Its IC50 is 30.3 ± 4.5 µM.
